This note sets out measurements from US6432983B1, “Benzothiophene compounds intermediates processes and methods of use” (Eli Lilly and Company, priority 1996, dated 2002).

Marks after values point to notes of the source that are not given here.

The test system of the data set is ovariectomized rats. Description: ovariectomized rat model of postmenopausal hyperlipidemia (uterine weight, uterine eosinophil peroxidase, serum cholesterol). The note with it: for Serum Cholest. % Dec: decrease versus ovariectomized controls. It counts as in vivo. The arrangement: Uterine Eosinophil (Vmax): unit not given here. The source says:
Experimental models of postmenopausal hyperlipidemia are known in the art. Germane to this invention is the ovariectomized rat model which is detailed in U.S. Pat. No. 5,464,845.
Data presented in Table 1 show comparative results among ovariectomized rats, rats treated with 17-α-ethynyl estradiol(EE2), and rats treated with certain compounds of this invention. […] This uterine response to estrogen is well recognized in the art.
Not only did the compounds of the present invention reduce serum cholesterol compared to the ovariectomized animals, but the uterine weight was increased to lesser extent than those given EE2. Compared to estrogenic compounds known in the art, the benefit of serum cholesterol reduction while lessening the effect on uterine weight is unusual and desirable.
As expressed in the data below, estrogenicity also was assessed by evaluating the response of eosinophil infiltration into the uterus.
The data presented in Table 1 reflect the response per treatment group.

The mark [1] stands for this setting: ovariectomized rats, dose 1.0 mg/kg.
[2] abbreviates: ovariectomized rats, dose 10.0 mg/kg.

On to `O=C(c1ccc(OCCCCCCCN2CCCC2)cc1)c1c(-c2ccc(O)cc2)sc2cc(O)ccc12` [Example 11, [2-(4-Hydroxyphenyl)-6-hydroxybenzo[b]thien-3-yl][4-[7-(1-pyrrolidinyl)heptyloxyl]phenyl]methanone], for which the “Serum Cholest. % Dec” value was 32.4* % under setting [1] and 60.5* % under setting [2]. Moreover, the “Uterine Eosinophil (Vmax)” value is 5.9 (rat, in vivo, 1 mg/kg) and 59.2* (rat, in vivo, 10 mg/kg). For the same compound, the “Uterine Weight % Inc” value by setting is: (rat, in vivo, 1 mg/kg) 9.3%; (rat, in vivo, 10 mg/kg) 64.0* %.
`O=C(c1ccc(OCCCCCN2CCCC2)cc1)c1c(-c2ccc(O)cc2)sc2cc(O)ccc12` [Example 13, [2-(4-Hydroxyphenyl)-6-hydroxybenzo[b]thien-3-yl][4-[5-(1-pyrrolidinyl)pentyloxyl]phenyl]methanone]: the “Serum Cholest. % Dec” value was 36.4* % under setting [1] and 52.9* % under setting [2]. In addition, the “Uterine Eosinophil (Vmax)” value by setting is: (rat, in vivo, 1 mg/kg) 5.8; (rat, in vivo, 10 mg/kg) 37.8*. Further, the “Uterine Weight % Inc” value was 10.1% (rat, in vivo, 1 mg/kg) and 39.2* % (rat, in vivo, 10 mg/kg).
Consider `O=C(c1ccc(OCCCN2CCCC2)cc1)c1c(-c2ccc(O)cc2)sc2cc(O)ccc12` [Example 15, [2-(4-Hydroxyphenyl)-6-hydroxybenzo[b]thien-3-yl][4-[3-(1-pyrrolidinyl)propyloxyl]phenyl]methanone], for which the “Serum Cholest. % Dec” value runs as follows: under setting [1], 62.7* %; under setting [2], 64.0* %. The “Uterine Eosinophil (Vmax)” value is recorded as 51.6* (rat, in vivo, 1 mg/kg) and 137.3* (rat, in vivo, 10 mg/kg). In addition, the “Uterine Weight % Inc” value is, setting by setting: (rat, in vivo, 1 mg/kg) 52.6* %; (rat, in vivo, 10 mg/kg) 58.2* %.
As for `O=C(c1ccc(OCCCCCCCCN2CCCC2)cc1)c1c(-c2ccc(O)cc2)sc2cc(O)ccc12` [Preparation C, [2-(4-Hydroxyphenyl)-6-hydroxybenzo[b]thien-3-yl][4-[8-(1-pyrrolidinyl)octyloxyl]phenyl]methanone], the “Serum Cholest. % Dec” value is on record as 31.3* % under setting [1] and 72.8* % under setting [2]. The “Uterine Eosinophil (Vmax)” value is, setting by setting: (rat, in vivo, 1 mg/kg) 4.2; (rat, in vivo, 10 mg/kg) 40.3*. In addition, the “Uterine Weight % Inc” value runs as follows: (rat, in vivo, 1 mg/kg) 18.3* %; (rat, in vivo, 10 mg/kg) 69.3* %.
On to `O=C(c1ccc(OCCCCCCN2CCCC2)cc1)c1c(-c2ccc(O)cc2)sc2cc(O)ccc12` [Example 12, [2-(4-Hydroxyphenyl)-6-hydroxybenzo[b]thien-3-yl][4-[6-(1-pyrrolidinyl)hexyloxyl]phenyl]methanone], for which the “Serum Cholest. % Dec” value is reported as 34.2* % under setting [1] and 74.0* % under setting [2]. For the same compound, the “Uterine Eosinophil (Vmax)” value was 2.6 (rat, in vivo, 1 mg/kg) and 17.2* (rat, in vivo, 10 mg/kg). The “Uterine Weight % Inc” value is, setting by setting: (rat, in vivo, 1 mg/kg) −2.6%; (rat, in vivo, 10 mg/kg) 47.8* %.
As for `C#C[C@]1(O)CC[C@H]2[C@@H]3CCc4cc(O)ccc4[C@H]3CC[C@@]21C` [EE2, 17-α-ethynyl estradiol, reference compound], the “uterine weight (in words)” value (compared to the ovariectomized animals or to EE2) was “substantially greater than the uterine weight of the ovariectomized animals”. Also, where the note is “compared to the ovariectomized animals, EE2 orally at 0.1 mg/kg/day”, the “serum cholesterol (in words)” value is “caused a decrease in serum cholesterol”. For the same compound, where the note is “ovariectomized rats, dose 0.1 mg/kg, % increase versus the ovariectomized controls”, the “Uterine Weight % Inc” value is reported as 125.8* %. The “Uterine Eosinophil (Vmax)” value (ovariectomized rats, dose 0.1 mg/kg, Eosinophil peroxidase, Vmaximum) is reported as 111.2*. Moreover, for the setting “ovariectomized rats, dose 0.1 mg/kg”, the “Serum Cholest. % Dec” value is reported as 88.1* %. In addition, the “eosinophil infiltration into the uterus (in words)” value (stromal layer of the ovariectomized rat uteri) was “substantial and expected increase in eosinophil infiltration”.
On to `O=C(c1ccc(OCCCCN2CCCC2)cc1)c1c(-c2ccc(O)cc2)sc2cc(O)ccc12` [Example 14, [2-(4-Hydroxyphenyl)-6-hydroxybenzo[b]thien-3-yl][4-[4-(1-pyrrolidinyl)butyloxyl]phenyl]methanone], for which the “Serum Cholest. % Dec” value reads like this: under setting [1], 37.9* %; under setting [2], 65.7* %. In addition, the “Uterine Eosinophil (Vmax)” value reads like this: (rat, in vivo, 1 mg/kg) 24.3*; (rat, in vivo, 10 mg/kg) 66.5*. In addition, the “Uterine Weight % Inc” value is listed as 21.4* % (rat, in vivo, 1 mg/kg) and 62.0* % (rat, in vivo, 10 mg/kg).
